The target of this assay is T1, human mAChR M4 (Homo sapiens, UniProt P08173).
T1 construct: expressed in transfected cells
T1 sequence (P08173 1-479): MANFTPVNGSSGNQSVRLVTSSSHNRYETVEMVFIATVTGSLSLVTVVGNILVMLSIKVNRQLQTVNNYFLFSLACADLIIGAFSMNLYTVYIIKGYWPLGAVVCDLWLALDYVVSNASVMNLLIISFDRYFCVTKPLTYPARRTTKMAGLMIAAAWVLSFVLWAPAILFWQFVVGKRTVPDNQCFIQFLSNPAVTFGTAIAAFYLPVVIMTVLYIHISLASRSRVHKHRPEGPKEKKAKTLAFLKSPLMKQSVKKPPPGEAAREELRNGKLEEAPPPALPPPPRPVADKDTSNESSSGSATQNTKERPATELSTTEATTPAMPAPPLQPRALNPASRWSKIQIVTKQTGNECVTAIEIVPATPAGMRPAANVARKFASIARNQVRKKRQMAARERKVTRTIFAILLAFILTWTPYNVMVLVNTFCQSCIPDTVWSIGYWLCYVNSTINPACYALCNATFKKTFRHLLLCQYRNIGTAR
Nature of the assay: mAChR M4 cell-based functional assay (calcium mobilization, CHO-K1 hM4-Gqi5 cells). Particulars: for Emax at 30 µM: CHO-K1, % ACh maximum at 30 μM, human M4; for EC50: positive allosteric modulator activity, increase in the EC20 acetylcholine response, CHO-K1 hM4-Gqi5 cells, read-out: Human M4 EC50. In outline: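 CHO-K1 cells stably expressing human M4 with chimeric Gqi5, loaded with Fluo-4 AM; compounds given as 11-point 1:3 curves and calcium flux read on FDSS at 1 Hz. Acetylcholine EC20 added at 144 s, EC80 at 230 s; agonist, PAM (EC20 potentiation) and antagonist (EC80 inhibition) EC50/Emax from four-parameter fits.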
On the technique in general: A change in cytosolic calcium serves as a functional read-out for many receptors and channels.

A value given as a limit tells only on which side of the number the result lay.

This note sets out measurements from patent US20250230155A1 (Vanderbilt University, priority 2021, published 2025).

Broadly, the Emax is the greatest response seen or fitted, relative to the assay's reference. What is called EC50 is the concentration giving half of the maximal effect. With `Cc1cc(C(=O)NC2CC2)cnc1N1CCc2ncccc2C1` [compound 64, N-cyclopropyl-6-(7,8-dihydro-5H-1,6-naphthyridin-6-yl)-5-methyl-pyridine-3-carboxamide], the Emax at 30 µM was determined as 59% and the EC50 was no less than 10000 nM. As to `Cc1c(C#N)nnc(N2CCc3ncc(-c4ccncc4)cc3C2)c1C` [compound 74, 4,5-dimethyl-6-[3-(4-pyridyl)-7,8-dihydro-5H-1,6-naphthyridin-6-yl]pyridazine-3-carbonitrile], the Emax at 30 µM was determined as 87% and the concentration giving a half-maximal response (EC50) was 368 nM.

On to `Cc1cc(C(=O)N2CCC2)nnc1N1CCc2ncc(-n3cccn3)cc2C1` [Example 531, (6-(3-(1H-pyrazol-1-yl)-7,8-dihydro-1,6-naphthyridin-6(5H)-yl)-5-methylpyridazin-3-yl)(azetidin-1-yl)methanone], for which the maximal response (Emax) at 30 µM was found to be 83% and the EC50 was determined as 241 nM. Taken in the same sequence, the figures for `Cc1cc2n(n1)CCCN2c1cnc2c(c1)CN(c1nnc(C#N)cc1C)CC2` [Example 382, 5-methyl-6-(3-(2-methyl-6,7-dihydropyrazolo[1,5-a]pyrimidin-4(5H)-yl)-7,8-dihydro-1,6-naphthyridin-6(5H)-yl)pyridazine-3-carbonitrile] were 98% and 74 nM.

`Cc1cc(C(=O)N(C)Cc2ccncc2)cnc1N1CCc2ncc(-c3cn(C)nc3C)cc2C1` [Example 454, 6-(3-(1,3-dimethyl-1/-pyrazol-4-yl)-7,8-dihydro-1,6-naphthyridin-6(5H)-yl)-N,5-dimethyl-N-(pyridin-4-ylmethyl)nicotinamide]: the Emax at 30 µM was determined as 60% and the EC50 was found to be 3900 nM.

Regarding `Cc1cc(C#N)nnc1N1CCc2ncc(C(F)(F)F)cc2C1` [Example 304, 5-methyl-6-(3-(trifluoromethyl)-7,8-dihydro-1,6-naphthyridin-6(5H)-yl)pyridazine-3-carbonitrile], the Emax at 30 µM is 93% and the EC50 amounted to 676 nM. Regarding `Cc1cnc2c(c1)CN(c1nc(C)nc(Cl)c1C)CC2` [compound 209, 6-(6-chloro-2,5-dimethyl-pyrimidin-4-yl)-3-methyl-7,8-dihydro-5H-1,6-naphthyridine], the EC50 stood at 170 nM. For the same molecule, the maximal response (Emax) (CHO-K1) turned out to be 95%. In the case of `Clc1nc2c(c(N3CCc4ncc(N5CCOc6ncccc65)cc4C3)n1)COC2` [compound 283, 1-(6-(2-chloro-5,7-dihydrofuro[3,4-d]pyrimidin-4-yl)-5,6,7,8-tetrahydro-1,6-naphthyridin-3-yl)-2,3-dihydro-1H-pyrido[2,3-b][1,4]oxazine], the EC50 was 368 nM.

With `Cc1cc(C(=O)NCc2ccc(-n3ccnc3)nc2)cnc1N1CCc2ncc(-c3cn(C)nc3C)cc2C1` [Example 478, N-((6-(1H-imidazol-1-yl)pyridin-3-yl)methyl)-6-(3-(1,3-dimethyl-1H-pyrazol-4-yl)-7,8-dihydro-1,6-naphthyridin-6(5/)-yl)-5-methylnicotinamide], the Emax at 30 µM was 50% and the concentration giving a half-maximal response (EC50) was 379 nM. Turning to `Cc1cc(C(=O)NCc2cncc(Br)c2)cnc1N1CCc2ncccc2C1` [compound 139, N-[(5-bromo-3-pyridyl)methyl]-6-(7,8-dihydro-5H-1,6-naphthyridin-6-yl)-5-methyl-pyridine-3-carboxamide], the Emax at 30 µM stood at 70% and the EC50 was determined as 1360 nM. Taken in the same sequence, the figures for `Cc1cc(C#N)nnc1N1CCc2ncc(N3CCOc4ncccc43)cc2C1` [Example 391, 6-(3-(2,3-dihydro-1H-pyrido[2,3-b][1,4]oxazin-1-yl)-7,8-dihydro-1,6-naphthyridin-6(5H)-yl)-5-methylpyridazine-3-carbonitrile] were 89% and 53 nM. As for `Cc1c(C#N)nnc(N2CCc3ncc(Nc4ccccc4OC(F)(F)F)cc3C2)c1C` [compound 44, 4,5-dimethyl-6-[3-[2-(trifluoromethoxy)anilino]-7,8-dihydro-5H-1,6-naphthyridin-6-yl]pyridazine-3-carbonitrile], the Emax at 30 µM was determined as 40% and the EC50 came to 1880 nM. Taken in the same sequence, the figures for `Cc1c(C(=O)NCc2cncs2)nnc(N2CCc3ncc(C(F)(F)F)cc3C2)c1C` [Example 465, 4,5-dimethyl-N-(thiazol-5-ylmethyl)-6-(3-(trifluoromethyl)-7,8-dihydro-1,6-naphthyridin-6(5H)-yl)pyridazine-3-carboxamide] were 101% and 44 nM. For `Cc1cc(C(=O)N2CC(C(F)F)C2)nnc1N1CCc2ncc(Nc3ccnn3C)cc2C1` [Example 558, (3-(difluoromethyl)azetidin-1-yl)(5-methyl-6-(3-((1-methyl-1H-pyrazol-5-yl)amino)-7,8-dihydro-1,6-naphthyridin-6(5H)-yl)pyridazin-3-yl)methanone], in that order: 90% and 101 nM. For `[2H]C1([2H])Cc2ncc(Nc3ccccc3F)cc2C([2H])([2H])N1c1ncc(C#N)cc1C` [Example 612], in that order: 91% and 24 nM. For the molecule `Cc1cc(C#N)nnc1N1Cc2cc(N3CCOCC3)cnc2C(C)C1` (stereo not drawn) [Example 404, 5-methyl-6-(8-methyl-3-morpholino-7,8-dihydro-1,6-naphthyridin-6(5H)-yl)pyridazine-3-carbonitrile], the Emax at 30 µM worked out at 72% and the EC50 is 901 nM. Taken in the same sequence, the figures for `Cc1cc(C(=O)N2CC(Cl)C2)nnc1N1CCc2ncc(-n3cccn3)cc2C1` [Example 532, (6-(3-(1H-pyrazol-1-yl)-7,8-dihydro-1,6-naphthyridin-6(5H)-yl)-5-methylpyridazin-3-yl)(3-chloroazetidin-1-yl)methanone] were 90% and 78 nM. Taken in the same sequence, the figures for `Cc1cc(C#N)nnc1N1CCc2ncc(N3CC(C)Cn4nccc43)cc2C1` (stereo not drawn) [Example 381, 5-methyl-6-(3-(6-methyl-6,7-dihydropyrazolo[1,5-a]pyrimidin-4(5H)-yl)-7,8-dihydro-1,6-naphthyridin-6(5H)-yl)pyridazine-3-carbonitrile] were 98% and 384 nM. For `[2H]C1([2H])N(c2cnc3c(c2)CN(c2nnc(C#N)cc2C)CC3)c2ccnn2C([2H])([2H])C1([2H])[2H]` [Example 416, 6-(3-(6,7-dihydropyrazolo[1,5-a]pyrimidin-4(5H)-yl-5,5,6,6,7,7-d6)-7,8-dihydro-1,6-naphthyridin-6(5H)-yl)-5-methylpyridazine-3-carbonitrile], in that order: 115% and 116 nM. For the molecule `Cc1cc(C(=O)NCc2cncs2)cnc1N1CCc2ncc(-c3ccc(N(C)C)nc3)cc2C1` [Example 485, 6-(3-(6-(dimethylamino)pyridin-3-yl)-7,8-dihydro-1,6-naphthyridin-6(5H)-yl)-5-methyl-N-(thiazol-5-ylmethyl)nicotinamide], the Emax at 30 µM was determined as 79% and the EC50 came to 247 nM. As for `Cc1cc(C#N)cnc1N1CCc2ncc(Oc3ccc4c(cnn4C)c3)cc2C1` [compound 183, 5-methyl-6-[3-(1-methylindazol-5-yl)oxy-7,8-dihydro-5H-1,6-naphthyridin-6-yl]pyridine-3-carbonitrile], the Emax at 30 µM was determined as 91% and the concentration giving a half-maximal response (EC50) was found to be 164 nM. Take `Cc1cc(C(=O)NCc2ccccn2)cnc1N1CCc2ncccc2C1` [compound 59, 6-(7,8-dihydro-5H-1,6-naphthyridin-6-yl)-5-methyl-N-(2-pyridylmethyl)pyridine-3-carboxamide]: the Emax at 30 µM came out at 68% and the EC50 came to 6910 nM. As for `Cc1cc(C(=O)NC2(c3cccnc3)CC2)nnc1N1CCc2ncc(N3CCCn4nccc43)cc2C1` [Example 553, 6-(3-(6,7-dihydropyrazolo[1,5-a]pyrimidin-4(5H)-yl)-7,8-dihydro-1,6-naphthyridin-6(5H)-yl)-5-methyl-N-(1-(pyridin-3-yl)cyclopropyl)pyridazine-3-carboxamide], the Emax at 30 µM stood at 80% and the EC50 was found to be 21 nM. Taken in the same sequence, the figures for `FC(F)(F)c1cnc2c(c1)CN(c1nc(Cl)nc3c1CCCC3)CC2` [compound 264, 2-chloro-4-(3-(trifluoromethyl)-7,8-dihydro-1,6-naphthyridin-6(5H)-yl)-5,6,7,8-tetrahydroquinazoline] were 66% and 1620 nM.

Turning to `Cc1cc(C(=O)N2CC(C)(F)C2)nnc1N1CCc2ncc(N3CCO[C@H](C)C3)cc2C1` [Example 573, (R)-(3-fluoro-3-methylazetidin-1-yl)(5-methyl-6-(3-(2-methylmorpholino)-7,8-dihydro-1,6-naphthyridin-6(5H)-yl)pyridazin-3-yl)methanone], the Emax at 30 µM worked out at 89% and the EC50 was 100 nM. Taken in the same sequence, the figures for `Cc1cc(C(=O)NCc2ccc(-n3ccnc3)nc2)cnc1N1CCc2ncccc2C1` [compound 148, 6-(7,8-dihydro-5H-1,6-naphthyridin-6-yl)-N-[(6-imidazol-1-yl-3-pyridyl)methyl]-5-methyl-pyridine-3-carboxamide] were 67% and 3540 nM.
